“Also recorded” adds a separate entry of the source. Where two headings read alike, the source gives them in different places.
What was measured:
[1] = system: P. aeruginosa PA27853/PLL-EGFP
[2] = system: PA-I lectin/adhesin expression in P. aeruginosa; format: cell-based, Pseudomonas aeruginosa
[3] = system: P. aeruginosa PAO1; format: cell-based, Pseudomonas aeruginosa
[4] = system: intestinal epithelial cells; settings: 0.6% solution; cited from earlier work
[5] = system: Endothelial cells; test: Pretreatment of endothelial cells followed by S1P or HMW PEG challenge (TEER); format: cell-based
[6] = system: ERK and MLC phosphorylation; test: ERK and MLC phosphorylation by Western blot; format: cell-based, human; settings: 1 μM S1P, 5 minutes
[7] = system: human lung microvessel endothelial cells (HLMVEC); test: Transendothelial electrical resistance (TEER) by ECIS, HMW PEG in serum-free EBM; format: cell-based
[8] = system: HPAECs; test: Intracellular calcium (Fura-2); format: cell-based, human; settings: 1 U/ml thrombin; 1 μM S1P
[9] = system: mice inoculated with PA27853; test: Mice with slow release morphine pellets drinking PA27853
[10] = system: P. aeruginosa (strain PAO1) whole cells and membrane fractions; format: binding, Pseudomonas aeruginosa
[11] = system: Endothelial cells
[12] = system: Caco-2 cells; test: TEER of Caco-2 monolayers inoculated with PA27853 with IFN-γ; format: cell-based
Text: In addition, strains were exposed to apical media from Caco-2 cells basolaterally exposed to one or more of the various epithelial-derived cytokines. Basolateral exposure of Caco-2 cells to the combination of IFN γ and TNF α activates cellular signaling proteins that dramatically alter tight junctional proteins and function. Media from Caco-2 cells exposed to various combinations of these cytokines had no effect on PA-I expression. However, IFN-γ alone induced a direct effect on PA-I expression while none of the other compounds alone had any effect (FIG. 4). […] Using ELISA, immunofluorescence microscopy, and flow cytometry, the binding characteristics of IFNγ were determined for both whole bacteria and membrane fractions of P. aeruginosa. […] These effects were also observed with strain PAO1. […] This protein can also be immunoprecipitated from E. coli (FIG. 6C). Next, IFN-γ binding specificity to whole bacterial cells was determined using reiterative binding studies in the presence of various gram-negative bacterial strains, including P. aeruginosa. […] Finally, in order to determine if PA-I was functionally expressed in PA27853 in the presence IFN-γ, PA27853 was inoculated onto Caco-2 cell monolayers in the presence of IFN-γ and the effect on barrier dysregulating dynamics of PA27853 against this cell line were assessed to determine if IFN-γ shifted the dynamics. […]

[13] = biological target: T1, OprF (Pseudomonas aeruginosa, UniProt P13794); test: Binding of IFN-γ to purified OprF (ELISA); settings: dose-dependent
T1 sequence (P13794 25-350): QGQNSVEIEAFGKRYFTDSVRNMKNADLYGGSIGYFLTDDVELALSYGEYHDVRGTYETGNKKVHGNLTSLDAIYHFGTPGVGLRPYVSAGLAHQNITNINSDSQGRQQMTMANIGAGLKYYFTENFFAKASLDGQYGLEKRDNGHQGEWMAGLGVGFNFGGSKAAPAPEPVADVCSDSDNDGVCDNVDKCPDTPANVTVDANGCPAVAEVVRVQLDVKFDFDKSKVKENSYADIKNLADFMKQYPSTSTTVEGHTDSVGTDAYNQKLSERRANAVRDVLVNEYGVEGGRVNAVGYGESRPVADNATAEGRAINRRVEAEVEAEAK

[14] = system: rhlI / C4-HSL in P. aeruginosa PAO1; test: Quorum sensing activation (rhlI mRNA, C4-HSL in supernatants); format: cell-based, Pseudomonas aeruginosa
[15] = biological target: protein on the surface of whole cells of P. aeruginosa (strain PAO1)
[16] = system: MDCK monolayers; test: Purified PA-I on epithelial monolayers (TEER, exotoxin A flux); format: cell-based

Nc1ncnc2c1ncn2[C@@H]1O[C@H](COP(=O)(O)OP(=O)(O)O)[C@@H](O)[C@H]1O [ADP]
PA-I promoter activity / expression (fluorescence) [1]: no evident inducing effects

Nc1ncnc2c1ncn2[C@@H]1O[C@H](COP(=O)(O)O)[C@@H](O)[C@H]1O [AMP]
PA-I promoter activity / expression (fluorescence) [1]: no evident inducing effects

Nc1ncnc2c1ncn2[C@@H]1O[C@H](COP(=O)(O)OP(=O)(O)OP(=O)(O)O)[C@@H](O)[C@H]1O [ATP]
PA-I promoter activity / expression (fluorescence) [1]: no evident inducing effects

CCCC(=O)N[C@H]1CCOC1=O [C4-HSL, C4-homoserine lactone]
PA-I expression in vitro [2]: induced PA-I expression | induction of PA-I mRNA (Northern blot) [2]: Induction of PA-I mRNA was observed | PCN production in mvfR mutants [3]: none of these mutants produced PCN | bacterial growth in TSB media [3]: Neither compound had an effect on bacterial growth | cell density at onset of PCN production [3]: a shift in the production of PCN to lower cell densities

C[C@@H](O)C(=O)O [D-lactate]
PA-I promoter activity / expression (fluorescence) [1]: had no effect on PA-I promoter activity

CC(=O)N[C@H]1C(O)O[C@H](CO)[C@H](O)[C@@H]1O (stereo partly drawn) [GalNAc, N-acetyl-D-galactosamine]
adhesion of P. aeruginosa to intestinal epithelial cells [4]: markedly decreased adhesion to intestinal epithelial cells

C[C@H](O)C(=O)O [L-lactate]
PA-I promoter activity / expression (fluorescence) [1]: had no effect on PA-I promoter activity

COC(=O)c1ccccc1N [MA, methyl anthranilate]
ability of U-50,488 to enhance PCN production [3]: inhibited the ability of U-50,488 to enhance PCN production; also recorded: attenuated the ability of U-50,488 to enhance PCN production

Oc1ccc2c3c1O[C@H]1c4[nH]c5c(c4C[C@@]4(O)[C@@H](C2)N(CC2CC2)CC[C@]314)C[C@@]1(O)[C@H]2Cc3ccc(O)c4c3[C@@]1(CCN2CC1CC1)[C@H]5O4 [NOR, nor-binaltorphimine]
U-50,488-enhanced PCN production [3]: completely inhibited enhanced PCN production

CCCCCCCCCCCCCC(=O)O[C@@H]1[C@@H](C)[C@@]2(O)[C@@H](C=C(CO)C[C@]3(O)C(=O)C(C)=C[C@@H]23)[C@@H]2C(C)(C)[C@]12OC(C)=O [PMA]
time for TEER increase to return to baseline ([5]; 100 nM PMA, baseline 1250 ohm): 8 h

CCCCCCCCCCCCC/C=C/[C@@H](O)[C@@H](N)COP(=O)(O)O [S1P, sphingosine 1-phosphate]
ERK phosphorylation [6]: drastic increase in ERK phosphorylation | time to maximum barrier enhancing effect ([7]; TEER): 10 to 15 min | increase in resistance (maximum barrier enhancing effect) ([7]; TEER, human pulmonary microvessel EC): 40% | effect of PMA pretreatment on the response to stimulation ([5]; pretreated 100 nM PMA 24 hours, challenge 1 μM S1P or 8% HMW PEG): Blocked | effect of PTX pretreatment on the response to stimulation ([5]; pretreated 100 ng/ml PTX 4 hours, challenge 1 μM S1P or 8% HMW PEG): Blocked | effect of S1P pretreatment on the response to stimulation ([5]; pretreated 1 μM S1P 24 hours, challenge 1 μM S1P or 8% HMW PEG): No effect | effect of FTY720 pretreatment on the response to stimulation ([5]; pretreated 10 μM FTY720 24 hours, challenge 1 μM S1P or 8% HMW PEG): Blunted | effect of FTY analog pretreatment on the response to stimulation ([5]; pretreated 10 μM FTY analog 24 hours, challenge 1 μM S1P or 8% HMW PEG): Blunted | intracellular calcium on stimulation of ECs [8]: induced intracellular calcium spikes

OC[C@H]1O[C@@H](n2cnc3c(O)ncnc32)[C@H](O)[C@@H]1O [inosine]
timing of PA-I induction compared to adenosine [1]: induced PA-I expression at an earlier time point and at lower cell densities (OD) compared to adenosine | concentration inducing PA-I expression relative to adenosine ([1]; less than adenosine): 10 fold

OC[C@H]1O[C@H](OCC2O[C@@H](O)[C@H](O)[C@@H](O)[C@@H]2O)[C@H](O)[C@@H](O)[C@H]1O (some centres unmarked) [mellibiose]
adhesion of P. aeruginosa to intestinal epithelial cells [4]: markedly decreased adhesion to intestinal epithelial cells

CN1CC[C@]23c4c5ccc(O)c4O[C@H]2[C@@H](O)C=C[C@H]3[C@H]1C5 [morphine]
increase in PA-I mRNA [2]: four-fold increase | increase in PA-I mRNA ([2]; PA27853, morphine 13 μM, quantitative RT-PCR): 4 fold | mortality ([9]; PA27853): significant mortality | mice developing severe sepsis ([9]; PA27853 1×10^8 cfu/ml daily): 4/4

NC[C@H](O)c1ccc(O)c(O)c1 [norepinephrine]
PA-I expression in vitro [2]: did not change PA-I expression; also recorded: PA-I expression was not affected by this compound

EGF: human cytokine tested for membrane binding
binding to P. aeruginosa cells / cell membranes (ELISA) [10]: No binding was observed

High Molecular Weight PolyEthylene Glycol [HMW PEG]
exotoxin A-induced cytotoxicity [11]: completely protected

IFN-γ: recombinant human interferon gamma, immune cytokine
PA27853-induced decrease in Caco-2 TEER ([12]; 5 hour time point, PA27853 alone decreased TEER by 60%): enhanced in the presence of IFN-γ | Caco-2 TEER, IFN-γ alone ([12]; without bacteria): Neither media nor IFN-γ alone altered TEER | PA-I expression in vitro [2]: induced PA-I expression | concentration giving the greatest increase in PA-I protein [2]: 100 ng/mL | induction of PA-I mRNA (Northern blot) [2]: Induction of PA-I mRNA was observed | binding to purified OprF [13]: purified OprF directly binds human IFN-γ | rhlI transcription (Northern blot) ([14]; PAO1): induced rhlI transcription | C4-HSL synthesis ([14]; PAO1, 100 ng/ml IFN-γ): C4-HSL synthesis was increased | pyocyanin production [3]: increased pyocyanin production | bacterial cells that bound IFN-γ [10]: 73%±3.2% | binding to P. aeruginosa cells / cell membranes (ELISA) [10]: avidly bound to whole fixed cells of P. aeruginosa in a dose-dependent manner | PA-I promoter activity / expression (fluorescence) [1]: Only IFN-γ induced PA-I promoter activity

IL-4: human cytokine
binding to P. aeruginosa cells / cell membranes (ELISA) [10]: No binding was observed

IL-10: human cytokine
binding to P. aeruginosa cells / cell membranes (ELISA) [10]: No binding was observed

TGF-β
binding to P. aeruginosa cells / cell membranes (ELISA) [10]: No binding was observed

dynorphin
PCN production [3]: enhanced PCN production in a dose-dependent manner

recombinant human IFN-γ (rH IFN-γ) (from UniProt P01579 24-166) (ligand)
percent of bacterial cells that bound IFN-γ [15]: 73%

thrombin
decrease in resistance ([7]; thrombin 1 U/ml, control cells): over 50% | maximum decrease in resistance ([7]; thrombin 1 U/ml, control cells): approximately 1200 ohm | intracellular calcium on stimulation of ECs [8]: induced intracellular calcium spikes

B1: adenosine deaminase: enzyme added to deplete the media of adenosine (protein, UniProt P00813 2-363, looked up)
Adenosine deaminase: AQTPAFDKPKVELHVHLDGSIKPETILYYGRRRGIALPANTAEGLLNVIGMDKPLTLPDFLAKFDYYMPAIAGCREAIKRIAYEFVEMKAKEGVVYVEVRYSPHLLANSKVEPIPWNQAEGDLTPDEVVALVGQGLQEGERDFGVKARSILCCMRHQPNWSPKVVELCKKYQQQTVVAIDLAGDETIPGSSLLPGHVQAYQEAVKSGIHRTVHAGEVGSAEVVKEAVDILKTERLGHGYHTLEDQALYNRLRQENMHFEICPWSSYLTGAWKPDTEHAVIRLKNDQANYSLNTDDPLIFKSTLDTDYQMTKRDMGFTEEEFKRLNINAAKSSFLPEDEKRELLDLLYKAYGMPPSASAGQNL
PA-I expression after depletion of adenosine from HIF-1-α activated Caco-2 media ([1]; Caco-2): even greater increase in PA-I expression

B2: PA-I: purified lectin/adhesin of P. aeruginosa, four 13 kDa subunits, binds D-galactose (protein, UniProt Q05097 2-122, looked up)
PA-I galactophilic lectin: AWKGEVLANNEAGQVTSIIYNPGDVITIVAAGWASYGPTQKWGPQGDREHPDQGLICHDAFCGALVMKIGNSGTIPVNTGLFRWVAPNNVQGAITLIYNDVPGTYGNNSGSFSVNIGKDQS
TEER of epithelial cells ([16]; purified PA-I): decreased the TEER of epithelial cells to the same degree as P. aeruginosa | increase in exotoxin A flux across MDCK cells ([16]; when TEER decreased below 50% of control by pure PA-I protein): five-fold increase

Reference: patent US20090186949A1, “Method for Treating Endothelial and Epithelial Cell Disorders by Administering High Molecular Weight PEG-Like Compounds” (THE UNIVERSITY OF CHICAGO, priority 2006, published 2009)
